Test results: paper PMC3133741 (Journal of medicinal chemistry, 2011)
Bridge positions count the residues as written; N and C are the ends. Square brackets hold non-standard residues; d marks the D form. Peptide text beside a SMILES is read from it. * marks the point of attachment. d(aThr) = C[C@@H](O)[C@@H](N)C(=O)O; Dhb = C/C=C(\N)C(=O)O; Propionyl = CCC(=O)*

Key:
TRPV1 [1] = biological target: T1, TRPV1 (Homo sapiens, UniProt Q8NER1); test: TRPV1 antagonism, structure-activity comparison; type: cell-based
T1 sequence (Q8NER1 whole entry): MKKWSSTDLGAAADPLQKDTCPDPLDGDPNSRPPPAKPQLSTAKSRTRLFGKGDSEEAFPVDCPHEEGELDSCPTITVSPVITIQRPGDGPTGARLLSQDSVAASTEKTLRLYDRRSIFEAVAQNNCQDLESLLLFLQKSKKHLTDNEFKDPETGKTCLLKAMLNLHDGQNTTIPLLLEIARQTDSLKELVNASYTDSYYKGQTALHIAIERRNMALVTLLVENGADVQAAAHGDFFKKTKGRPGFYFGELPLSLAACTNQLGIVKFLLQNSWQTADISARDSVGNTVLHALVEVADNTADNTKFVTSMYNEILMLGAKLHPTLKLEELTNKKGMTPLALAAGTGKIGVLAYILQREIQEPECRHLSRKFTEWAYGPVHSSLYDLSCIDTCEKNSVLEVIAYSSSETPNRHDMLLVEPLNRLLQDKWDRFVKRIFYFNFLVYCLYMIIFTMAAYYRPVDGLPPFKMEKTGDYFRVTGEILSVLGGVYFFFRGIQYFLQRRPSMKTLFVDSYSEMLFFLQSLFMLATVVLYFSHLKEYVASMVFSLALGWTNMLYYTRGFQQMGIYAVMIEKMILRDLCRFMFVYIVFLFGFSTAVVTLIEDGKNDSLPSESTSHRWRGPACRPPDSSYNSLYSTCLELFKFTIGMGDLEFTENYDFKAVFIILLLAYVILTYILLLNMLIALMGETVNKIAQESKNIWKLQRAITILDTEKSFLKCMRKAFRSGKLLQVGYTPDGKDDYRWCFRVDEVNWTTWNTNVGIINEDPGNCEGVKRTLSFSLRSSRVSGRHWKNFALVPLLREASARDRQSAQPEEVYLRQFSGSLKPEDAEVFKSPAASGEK

TRPV1 [2] = biological target: T1, TRPV1; test: Calcium flux assay in BEAS-2B cells stably overexpressing human TRPV1; type: cell-based; settings: capsaicin 2.5 μM
[3] = tested on: mutant human TRPV1 variants; test: Calcium flux assay in HEK-293 cells, three further; settings: 375 μM, pre-incubated (Figure 3)
human TRPV1 C578A mutant = human TRPV1 C578A mutant (Homo sapiens, UniProt Q8NER1, C578A); test: Calcium flux assay in HEK-293 cells, human TRPV1 C578A mutant; settings: 375 μM, pre-incubated (Figure 3)
Chain of human TRPV1 C578A mutant (Q8NER1 whole entry C578A): as the sequence (Q8NER1 whole entry) above, with C578A counted along it

human wild type TRPV1 = human wild type TRPV1 (Homo sapiens, UniProt Q8NER1); test: Calcium flux assay in HEK-293 cells transfected with wild-type human TRPV1; type: cell-based; settings: for duration of abolished TRPV1 activity after removal of drug: mouse and human TRPV1 channels
Chain of human wild type TRPV1 (Q8NER1 whole entry): as the sequence (Q8NER1 whole entry) above

human TRPV1 F660A mutant = human TRPV1 F660A mutant (Homo sapiens, UniProt Q8NER1, F660A); test: Calcium flux assay in HEK-293 cells, human TRPV1 F660A mutant; settings: 375 μM, pre-incubated (Figure 3)
Chain of human TRPV1 F660A mutant (Q8NER1 whole entry F660A): as the sequence (Q8NER1 whole entry) above, with F660A counted along it

human TRPV1 C621A mutant = human TRPV1 C621A mutant (Homo sapiens, UniProt Q8NER1, C621A); test: Calcium flux assay in HEK-293 cells, human TRPV1 C621A mutant; settings: 375 μM, pre-incubated (Figure 3)
Chain of human TRPV1 C621A mutant (Q8NER1 whole entry C621A): as the sequence (Q8NER1 whole entry) above, with C621A counted along it

TRPV1 [4] = biological target: TRPV1 (Mus musculus, UniProt Q704Y3); test: Long-term TRPV1 antagonism test in mouse DRG neurons; type: cell-based; settings: 125 μM, 5 min incubation
Chain of TRPV1 (Mus musculus, UniProt Q704Y3) (Q704Y3 whole entry): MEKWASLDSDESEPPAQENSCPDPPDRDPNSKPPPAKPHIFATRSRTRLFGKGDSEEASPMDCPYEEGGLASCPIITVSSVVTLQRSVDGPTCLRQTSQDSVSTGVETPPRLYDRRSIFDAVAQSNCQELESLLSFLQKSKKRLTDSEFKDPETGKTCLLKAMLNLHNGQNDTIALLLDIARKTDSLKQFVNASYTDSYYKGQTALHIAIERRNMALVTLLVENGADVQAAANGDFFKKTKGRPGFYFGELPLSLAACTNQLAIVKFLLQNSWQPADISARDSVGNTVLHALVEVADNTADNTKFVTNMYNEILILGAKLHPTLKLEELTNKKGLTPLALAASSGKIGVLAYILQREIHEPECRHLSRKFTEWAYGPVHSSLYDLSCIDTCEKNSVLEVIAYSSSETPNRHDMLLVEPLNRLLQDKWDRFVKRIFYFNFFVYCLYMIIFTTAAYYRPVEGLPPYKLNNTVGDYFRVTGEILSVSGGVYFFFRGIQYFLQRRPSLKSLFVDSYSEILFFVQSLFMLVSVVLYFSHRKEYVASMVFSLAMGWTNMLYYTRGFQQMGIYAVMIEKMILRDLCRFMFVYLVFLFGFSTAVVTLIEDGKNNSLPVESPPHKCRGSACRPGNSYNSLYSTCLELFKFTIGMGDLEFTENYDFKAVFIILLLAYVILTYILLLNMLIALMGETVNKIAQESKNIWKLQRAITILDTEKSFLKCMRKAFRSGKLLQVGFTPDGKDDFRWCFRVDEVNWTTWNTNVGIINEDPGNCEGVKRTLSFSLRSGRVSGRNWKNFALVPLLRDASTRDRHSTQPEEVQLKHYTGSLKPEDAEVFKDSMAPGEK

mouse DRG neurons = test: Fluorometric calcium flux assay in mouse DRG primary cell culture; type: cell-based; settings: 125 μM final concentration; 25 mM KCl 5 min after application, then capsaicin

Row | Structure (SMILES) | inhibitory activity (in words) (TRPV1 [1]) | antagonism of capsaicin in direct competition experiments (TRPV1 [2]) | inhibition of three other TRPV1 mutants [3] | TRPV1 antagonism in C578A mutant (human TRPV1 C578A mutant) | duration of abolished TRPV1 activity after removal of drug (human wild type TRPV1) [h] | TRPV1 antagonism in F660A mutant (human TRPV1 F660A mutant) | TRPV1 antagonism in C621A mutant (human TRPV1 C621A mutant) | further results
1 | C/C=C1\NC(=O)[C@H](C)NC(=O)[C@H](C(C)C)NC(=O)[C@H](NC(=O)[C@H](Cc2ccccc2)NC(=O)[C@@H](CC(C)C)NC(=O)[C@@H](Cc2ccccc2)NC(C)=O)[C@@H](C)OC1=O [Compound 2, A-3302-A] (Ac-[dF][dL]F[d(aThr)]VA[Dhb]; ester 4-C) | exhibited inhibitory activity | antagonize the action of capsaicin on TRPV1 | in a manner similar to wild type | complete loss of TRPV1 antagonism | > 1 | complete loss of TRPV1 antagonism | complete loss of TRPV1 antagonism | –
2 | C/C=C(\NC(=O)[C@H](C)NC(=O)[C@@H](NC(=O)[C@H](NC(=O)[C@H](Cc1ccccc1)NC(=O)[C@@H](CC(C)C)NC(=O)[C@@H](Cc1ccccc1)NC(C)=O)[C@@H](C)O)C(C)C)C(=O)O [Compound 4, Nobilamide A] (Ac-[dF][dL]F[d(aThr)]VA[Dhb]-OH) | exhibited inhibitory activity | – | – | – | – | – | – | recovery of capsaicin response (TRPV1 [4]; three-hour recovery period): recovery was observed after three hours; capsaicin response after incubation with compound (TRPV1 [4]; capsaicin 100 or 200 nM): initially abolished; response to capsaicin after application of pure compound (mouse DRG neurons): complete loss of response to capsaicin
3 | C/C=C(\NC(=O)[C@H](C)NC(=O)[C@@H](NC(=O)[C@H](NC(=O)[C@H](Cc1ccccc1)NC(=O)[C@@H](CC(C)C)NC(=O)[C@@H](Cc1ccccc1)NC(=O)CC)[C@@H](C)O)C(C)C)C(=O)O [Compound 5, Nobilamide B] (Propionyl-[dF][dL]F[d(aThr)]VA[Dhb]-OH) | exhibited inhibitory activity | antagonize the action of capsaicin on TRPV1 | in a manner similar to wild type | complete loss of TRPV1 antagonism | > 1 | complete loss of TRPV1 antagonism | complete loss of TRPV1 antagonism | potency with pre-incubation versus co-application with capsaicin (human wild type TRPV1; 375 μM compound, capsaicin 25 μM (Figure 1)): greatly increased with pre-incubation; stability of inhibitory activity to washes (human wild type TRPV1; 375 μM, 1 h timecourse with washes (Figure 2)): stable through four washes taking place over a 60-min period; rebound of activity (human wild type TRPV1; after washes, human cells): slight rebound of activity was noticed after one hour
4 | C/C=C1\NC(=O)[C@H](C)NC(=O)[C@H](C(C)C)NC(=O)[C@H](NC(=O)[C@H](Cc2ccc(O)cc2)NC(=O)[C@@H](CC(C)C)NC(=O)[C@H](Cc2ccccc2)NC(C)=O)[C@@H](C)OC1=O [Compound 8, Nobilamide E] (Ac-F[dL]Y[d(aThr)]VA[Dhb]; ester 4-C) | inactive | – | – | – | – | – | – | –
5 | CC(=O)N[C@@H](Cc1ccccc1)C(=O)N[C@H](CC(C)C)C(=O)N[C@@H](Cc1ccccc1)C(=O)N[C@@H](C(=O)N[C@H](C(=O)N[C@@H](C)C(=O)O)C(C)C)[C@@H](C)O [Compound 6, Nobilamide C] (Ac-F[dL]F[d(aThr)]VA-OH) | Neither 6 nor 1a exhibited detectable activity | – | – | – | – | – | – | –
6 | C/C=C1\NC(=O)[C@H](C)NC(=O)[C@H](C(C)C)NC(=O)[C@H](NC(=O)[C@H](Cc2ccccc2)NC(=O)[C@@H](CC(C)C)NC(=O)[C@@H](Cc2ccccc2)NC(=O)CC)[C@@H](C)OC1=O [Compound 1, A-3302-B] (Propionyl-[dF][dL]F[d(aThr)]VA[Dhb]; ester 4-C) | exhibited inhibitory activity | – | – | – | – | – | – | –
